Source: patent publication US20240238268A1, “TREATMENTS AND METHODS FOR TREATING ALZHEIMER'S DISEASE” (Board of Supervisors of Louisiana State University and …, priority 2021, published 2024)

Tests used:
Format in all cases: in vivo, mouse
eNOS = eNOS protein level in brain, capillary-phoresis; conditions: treated 3xTg-AD mice; control = 100%
Source text: Capillary-phoresis immunoassay via ProteinSimple®: Quantification of all protein targets was achieved using Simple Western analysis in a Jess™ apparatus per the manufacturer's protocol (ProteinSimple, Bio-techne, Minneapolis, MN). Protein was extracted from dissected tissue in an extraction buffer consisting of T-PER® Tissue Protein Extraction Reagent (Cat. No. 78510, Thermo Fischer Scientific, Waltham, MA) and Halt™ Protease Inhibitor Cocktail (Cat. No. 87785, Thermo Fischer Scientific, Waltham, MA). Following homogenization and centrifugation (10,000×g, 5 min, 4° C.), protein concentration was determined in tissue protein supernatant samples using DC Protein Assay (Cat. No. 5000112, Bio-Rad Laboratories, Hercules, California) according to manufacturer instructions. […] Antibody diluent (ProteinSimple, Bio-techne, Minneapolis, MN) was used for all antibody dilutions as follows: PRMT4 (1:50, RRID: AB_2068436), PRMT6 (1:100, Cell Signaling Technology cat. 14641), eNOS (1:200, RRID: AB_10850618), nNOS (1:100, RRID: AB_2152488), iNOS (1:100, RRID: AB_10000625), DDAH2 (1:50, RRID: AB_2640442) Antibodies were detected using HRP-conjugated secondary anti-rabbit, and -mouse. Relative protein levels were calculated by measuring the area under the peak of a chemiluminescent chromatogram and normalized to total capillary chemiluminescence for a given sample. […]

C57 mice = test: Neurovascular coupling: microvessel diameter, two-photon laser scanning microscopy, C57 mice; conditions: decreased PRMT4 via TP-064/PRMT4-AAV
NO3+NO2 = test: Nitrate/Nitrite colorimetric assay (Griess reaction) of whole brain; conditions: 3xTg-AD mice; 30 mg/kg, IP, 7 days
Description: Nitrate/Nitrite colorimetric assay: Following euthanasia, whole brains were dissected from mice. Cold (4 °C) phosphate-buffered saline (PBS) and glass tissue grinders were used to homogenize the whole brain. Homogenates were centrifuged at 10,000×g for 20 min at 4° C. The supernatant was collected and filtered using 10 kDa ultrafilter (Cat. No. […]010, Millipore, Burlington, VA). Nitrate and nitrite were quantified per manufacturer's instructions (Cat. No. 780001, Cayman Chemical, Ann Arbor, MI). In summary, 80 μL of supernatant was loaded into a 96-well plate with 10 μL enzyme cofactor, and 10 μL nitrate reductase. Following 3 hrs of incubation, 100 μL Griess reagent was added, and plate was incubated for 30 min. The standard curve was provided by the manufacturer, and all sample concentrations were determined from the standard curve values. Changes in absorbance were measured at 550 nm. Final nitrate/nitrite levels were expressed in μM concentration.

VCAM-1 = VCAM-1 level, protein chip assay; conditions: aged 3xTg-AD female mice; cortex and hippocampus; 30 mg/kg, 7 days, IP
Description: FIGS. 19A-19F are six graphs showing PRMT4 inhibitor (TP-064) reduced ICAM-1, VCAM-1 and enhanced E-Cadherin protein levels in aged female 3xTg-AD mice. In FIGS. 19A-19D, aged 3xTg-AD female mice v. […] Adhesion molecules were assessed via protein chip assay in the cortex and hippocampus. * p<0.05 evaluated by one-way ANOVA with Tukey's post-hoc analyses.

aged 3xTg-AD female mice = test: Regional cortical cerebral blood flow, laser speckle contrast imaging; conditions: 3xTg-AD mice; 30 mg/kg, IP, 7 days; untreated C57BL/6J = 100%
Description: Surgical Preparation and Anesthetic Procedure: Mice were anesthetized with 4% isoflurane (Cat. No. 21295098, Patterson Veterinary, Greeley, CO) and a mixture of O2 and N2O (30:70) via mask. Hair was shaved at the site of surgery (from the nape up to the eyes). Body temperature was maintained at 37° C. by a rodent heating pad with anal probe as a temperature reference (ThermoStar, RWD Life Science, San Diego, CA). Anesthesia was maintained by lowering isoflurane from 4% to 1%.
Thinned-skull preparation: Mice were placed in a stereotaxic frame to stabilize the skull and artificial tears (Patterson Veterinary, Greeley, CO) was applied in each eye. Dissection scissors and forceps were used to reveal the skull. A high-speed dental drill (RWD Life Science, San Diego, CA) was used to thin the skull creating a small window (1 mm in diameter) approximately 2 mm rostral and 1 mm lateral to the lambda, with saline irrigation to prevent overheating of the skull tissue. Laser speckle contrast imaging or two-photon laser scanning microscopy analyses were conducted following this preparation.
Laser speckle contrast imaging: Cerebral microvasculature was imaged by utilizing the thin skull preparation method. After thinning the skull, the mouse was placed in a stereotaxic apparatus. […]

`CNCCN1CCC(c2cc(CN(C)C(=O)c3cccc(Oc4ccccc4)c3)ccn2)CC1` [TP-064, N-Methyl-N-((2-(1-(2-(methylamino)ethyl)piperidin-4-yl)pyridin-4-yl)methyl)-3-phenoxybenzamide] was tested, and the “eNOS level in cortical lysates” value (eNOS) was 94.0%±25.6, the “eNOS level in hippocampal lysates” value (eNOS) was 69.5%±2.71 and the vascular diameters (C57 mice) was “did not affect”. The “total NO3+NO2 in whole-brain lysate” value (NO3+NO2) was 3.90 ± 0.667 µM, the VCAM-1 level (VCAM-1) was “decreased” and the “regional cortical CBF” value (aged 3xTg-AD female mice) was 194%±8.6.
